{"source": "ChEMBL document CHEMBL1156557", "about": "“Structure and biosynthesis of norneolambertellin produced by Lambertella sp. 1346” (Bioorg Med Chem Lett, 2008)", "key": {"Bipolaris oryzae": {"system": "Bipolaris oryzae", "experiment": "Antifungal activity against Cochliobolus miyabeanus at 50 ug/ml", "type": "functional, organism-based"}, "Monilinia fructigena": {"system": "Monilinia fructigena", "experiment": "Antifungal activity against Monilinia fructigena", "type": "functional, organism-based"}}, "note": "Active and inactive are the calls of the source. The calls are words filed in the database; no cut-off is given here.", "data": [{"compound": "Cc1cc2c(=O)oc3c(O)cccc3c2oc1=O", "values": [{"measurement": "Activity", "setting": "Bipolaris oryzae", "result": "Active"}, {"measurement": "Activity", "setting": "Monilinia fructigena", "result": "inactive"}]}]}
